Data set [1] has as its target Opioid receptors; mu/kappa/delta (Homo sapiens) (UniProt P41145+P41143+P35372). The following applies: Brain, 1 uM.
Description: Displacement of [3H]naloxone from opioid receptor (unknown origin) in brain homogenate at 1 uM to 10 nM
Data set [2] relates to Mus musculus. Put plainly: Residual inhibition of morphine-induced analgesia in mouse at 2.4 nmol, icv measured after 2 hrs by tail-flick assay. It is filed as functional, organism-based.
In data set [3] the test system is Mus musculus. In words: Toxicity in mouse at 4.8 nmol, icv measured within 1.5 hrs post-drug administration. Format: organism-based. The conditions noted are these: in vivo, icv_or_intrathecal.
Data set [4] can be described thus: Toxicity in mouse assessed as animal death at 2.4 nmol, icv. Format: organism-based. The conditions noted are these: in vivo, icv or intrathecal, read-out: Activity.

Active and inactive are the calls of the source. No cut-off for these calls is given here.

Chain of Opioid receptors; mu/kappa/delta (Homo sapiens) (P35372 whole entry, looked up): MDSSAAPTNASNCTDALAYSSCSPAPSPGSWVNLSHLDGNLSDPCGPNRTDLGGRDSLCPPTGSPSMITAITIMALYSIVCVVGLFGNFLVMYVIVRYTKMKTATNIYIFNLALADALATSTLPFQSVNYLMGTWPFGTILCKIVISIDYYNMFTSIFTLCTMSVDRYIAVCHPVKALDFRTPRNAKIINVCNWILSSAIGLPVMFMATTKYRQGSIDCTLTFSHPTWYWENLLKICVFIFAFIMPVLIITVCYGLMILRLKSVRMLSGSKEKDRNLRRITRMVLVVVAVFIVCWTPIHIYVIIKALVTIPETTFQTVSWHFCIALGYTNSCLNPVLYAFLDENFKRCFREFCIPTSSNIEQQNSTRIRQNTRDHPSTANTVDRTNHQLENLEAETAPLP
Chain of Opioid receptors; mu/kappa/delta (Homo sapiens) (P41143 whole entry, looked up): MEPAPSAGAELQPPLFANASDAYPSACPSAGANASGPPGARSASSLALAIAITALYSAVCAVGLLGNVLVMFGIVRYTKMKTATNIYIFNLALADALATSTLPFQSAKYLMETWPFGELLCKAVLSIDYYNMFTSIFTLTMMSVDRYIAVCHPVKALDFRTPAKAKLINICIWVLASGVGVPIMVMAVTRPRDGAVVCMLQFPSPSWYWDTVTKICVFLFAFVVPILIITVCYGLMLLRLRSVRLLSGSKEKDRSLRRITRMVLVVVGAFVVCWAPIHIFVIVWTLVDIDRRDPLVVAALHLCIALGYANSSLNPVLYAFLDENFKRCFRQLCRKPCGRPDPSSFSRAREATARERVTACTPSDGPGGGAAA
Chain of Opioid receptors; mu/kappa/delta (Homo sapiens) (P41145 whole entry, looked up): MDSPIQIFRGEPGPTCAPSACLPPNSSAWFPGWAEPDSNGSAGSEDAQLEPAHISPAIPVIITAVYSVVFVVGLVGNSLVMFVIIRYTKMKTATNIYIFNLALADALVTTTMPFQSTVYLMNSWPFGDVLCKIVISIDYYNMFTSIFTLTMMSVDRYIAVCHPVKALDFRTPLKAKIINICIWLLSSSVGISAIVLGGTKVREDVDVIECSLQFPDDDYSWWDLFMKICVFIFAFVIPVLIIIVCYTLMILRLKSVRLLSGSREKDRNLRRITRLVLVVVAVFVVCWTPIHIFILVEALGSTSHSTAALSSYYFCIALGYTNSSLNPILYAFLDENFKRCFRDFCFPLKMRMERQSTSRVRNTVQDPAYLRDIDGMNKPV

Take `CN1CC[C@]23CCCC[C@H]2[C@H]1Cc1ccc(O)cc13`: in data set [1], the inhibition entry is “Active”. Consider `O=C1CC[C@@]2(O)[C@H]3Cc4ccc(O)c5c4[C@@]2(CCN3CC2CC2)[C@H]1O5`, for which the inhibition entry in the data set on Mus musculus [2] was “inactive”.

With `Cl.Oc1ccc2c3c1O[C@H]1[C@H](N(CCCl)CCCl)CC[C@@]4(O)[C@@H](C2)N(CC2CC2)CC[C@]314`, in the data set with Mus musculus [3], the Activity was found to be 12%. Also, the mortality in data set [4] stood at 2%.

The values are drawn from ChEMBL document CHEMBL3244199, “6beta-[N,N-Bis(2-chloroethyl)amino]-17-(cyclopropylmethyl)-4,5alpha-epoxy-3,14-dihydroxymorphinan(chlornaltrexamine) a potent opioid receptor alkylating agent with ultralong narcotic antagonist actitivty” (J Med Chem, 1978).
